What was measured:
[1] = tested on: 5-HT uptake, synaptosomes prepared from the rat brain; assay: Serotonin uptake into synaptosomes; assay type: cell-based
Experimental: (§1) Transporter Binding and Cellular Uptake. All described monoamine transporter binding studies as well as cellular uptake assays were performed in duplicate by CEREP (Celle l'Evescault, France) and are described below. Further details of all assays performed may be accessed at the CEREP web site (world-wide-web at cerep.com). Cellular-based assays were conducted to provide complementary in vitro functional measures to complement the standard transporter assays as well as to provide direct comparisons of the homologs IPH with MPH with regard to DA, NE, and 5-HT uptake in synaptosomal preparations.
Serotonin Uptake. The assessment of the relative effects of IPH and MPH on 5-HT uptake utilized measures of [^3H]5-HT incorporation into synaptosomes prepared from the rat brain. […] Following incubation, the samples were filtered, counted using a scintillation instrument, and the results expressed as a percent inhibition of the control uptake of [^3H]5-HT. The standard inhibitory reference compound was the TCA imipramine, which was tested in each experiment at several concentrations to obtain an inhibition curve from which its IC50 value was calculated.

[2] = target: T1, hCES1 (Homo sapiens, UniProt P23141); assay: Transesterification potential in the presence of ethanol, s9 fraction of hCES1-transfected cells; conditions: for effect of ethanol on formation of the hydrolytic product RA: hCES1 s9; for EPH formation with ethanol when hCES1 was not present: incubation with ethanol, no hCES1
T1 sequence (P23141 18-567): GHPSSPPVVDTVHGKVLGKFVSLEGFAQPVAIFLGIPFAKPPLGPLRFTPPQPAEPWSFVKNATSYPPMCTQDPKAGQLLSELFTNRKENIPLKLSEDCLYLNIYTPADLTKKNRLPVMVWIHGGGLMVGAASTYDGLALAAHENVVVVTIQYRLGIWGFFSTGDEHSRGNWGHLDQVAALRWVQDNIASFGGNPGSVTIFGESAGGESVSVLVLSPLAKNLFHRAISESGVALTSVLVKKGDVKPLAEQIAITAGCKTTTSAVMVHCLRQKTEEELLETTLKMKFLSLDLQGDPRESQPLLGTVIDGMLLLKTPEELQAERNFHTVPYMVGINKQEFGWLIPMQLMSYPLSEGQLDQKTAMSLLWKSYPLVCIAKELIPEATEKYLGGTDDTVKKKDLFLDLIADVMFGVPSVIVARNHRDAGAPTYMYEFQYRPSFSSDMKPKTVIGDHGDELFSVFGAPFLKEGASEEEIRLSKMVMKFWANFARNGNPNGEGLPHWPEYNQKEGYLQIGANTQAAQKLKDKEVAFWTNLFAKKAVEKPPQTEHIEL
Experimental: FIG. 3—Transesterification potential of isopropylphenidate (IPH) versus methylphenidate (MPH) by s9 fractions of CES1 transfected cells in the presence of ethanol. MPH (1 mM) or IPH (1 mM) was incubated with s9 fractions of hCES1 overexpressing cells (2 mg/ml) in the presence or absence of ethanol (10 mM) at 37° C. for 30 min. The transesterification product EPH and hydrolytic metabolite RA were analyzed utilizing established HPLC assays. […] Data are expressed as mean±SEM of three independent experiments.
An In Vitro Investigation of the Transesterification Potential of Isopropylphenidate versus Methylphenidate in the Presence of Ethanol. The s9 fraction of hCES1-transfected cells, d1-MPH), dl-IPH, and ethanol working solution were prepared in DPBS containing 20 mM HEPES, pH7.4. The reaction was initiated by mixing 200 μl of s9 fraction, 100 μl of substrates (MPH or IPH) and 100 μl of ethanol. The final concentrations of s9 fraction protein, MPH, IPH, and ethanol were 2 mg/ml, 1 mM, 1 mM, and 10 mM, respectively. After incubation at 37° C. for 1 h, the reaction was terminated by adding a four-fold concentration of ice-cold methanol. The samples were then centrifuged at 16,000 g for 5 min, and the resulting supernatant was subjected to HPLC analysis to assess each for the formation and/or concentration of the hydrolytic product of both MPH and IPH, and common metabolite RA. Additionally, the samples were assayed for the presence of the transesterification metabolite ethylphenidate (EPH). Further, the s9 fraction prepared from the vector-transfected cells was included in this study as a control for any non-enzymatic hydrolysis which might occur. The hCES1 mediated MPH and IPH hydrolysis was estimated by deducting the amounts of RA produced in the vector s9 samples from the RA formation observed in the hCES1 s9 samples.

[3] = tested on: NE uptake, synaptosomes prepared from the rat hypothalamus; assay: Norepinephrine uptake into synaptosomes; assay type: cell-based
Experimental: as §1

[4] = tested on: DA uptake, synaptosomes prepared from the rat striatum; assay: Dopamine uptake into synaptosomes; assay type: cell-based
Experimental: as §1
Dopamine Uptake. The evaluation of the effects of the two compounds on DA uptake again utilized synaptosomes but this time prepared from the rat striatum. […] After incubation, the samples were filtered, counted, and the results expressed as a percent inhibition of the control uptake of [^3H]dopamine by scintillation count. The standard inhibitory reference compound was GBR12909, which was tested in each experiment at several concentrations to obtain an inhibition curve from which its IC50 value was calculated.

[5] = target: T2, human serotonin 5-HT transporter (SERT) (Homo sapiens, UniProt P31645); assay: Serotonin transporter binding assay ([3H]imipramine, CEREP); conditions: ligand [3H]imipramine, transfected CHO cells, HCl salts
T2 construct: host or cells: CHO cells, cell membrane homogenates
T2 sequence (P31645 whole entry): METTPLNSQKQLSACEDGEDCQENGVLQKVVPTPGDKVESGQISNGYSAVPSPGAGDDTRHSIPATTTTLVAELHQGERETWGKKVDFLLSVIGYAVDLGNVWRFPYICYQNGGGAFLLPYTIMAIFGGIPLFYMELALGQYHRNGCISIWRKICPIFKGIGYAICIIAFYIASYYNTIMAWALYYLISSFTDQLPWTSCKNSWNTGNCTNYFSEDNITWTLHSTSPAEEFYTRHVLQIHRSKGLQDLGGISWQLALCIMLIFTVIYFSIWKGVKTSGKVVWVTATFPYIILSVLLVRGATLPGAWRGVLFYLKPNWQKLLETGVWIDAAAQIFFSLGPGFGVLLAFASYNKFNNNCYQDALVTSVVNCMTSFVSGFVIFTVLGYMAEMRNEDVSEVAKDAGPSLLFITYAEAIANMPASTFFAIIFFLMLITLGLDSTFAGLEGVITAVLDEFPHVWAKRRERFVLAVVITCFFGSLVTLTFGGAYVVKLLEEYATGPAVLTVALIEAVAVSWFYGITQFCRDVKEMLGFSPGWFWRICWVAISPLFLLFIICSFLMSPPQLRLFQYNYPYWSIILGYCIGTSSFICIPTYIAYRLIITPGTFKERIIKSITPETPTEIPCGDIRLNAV
Experimental: as §1, with “preparations. The concentration of MPH, EPH, and IPH utilized in these studies was 10 μM, which represents a generally accepted screening concentration when evaluating compounds in this manner.” for “preparations.”
Serotonin Transporter Binding Assay. […] Briefly, cell membrane homogenates were incubated for 90 min at 4° C. with 2 nM of [^3H]imipramine in the absence and presence of each of the assessed compounds. Nonspecific binding was determined in the presence of 10 μM of imipramine. […] The filters were then dried and measured for radioactivity via scintillation counter. The standard reference compound was the TCA imipramine, which was tested in each experiment at several concentrations to generate a competition curve from which its IC50 was calculated.

Structure (SMILES)	% inhibition of control specific binding; [3H]5-HT incorporation into synaptosomes ([1]; 10 μM) [%]	velocity of hCES1-mediated transesterification to EPH ([2]; 1 mM substrate, 10 mM ethanol, 2 mg/ml s9 protein, 37° C.) [pmole/min/mg protein]	effect of ethanol on formation of the hydrolytic product RA ([2]; 10 mM ethanol)	EPH formation with ethanol when hCES1 was not present [2]	% inhibition of control specific binding; [3H]NE incorporation into synaptosomes ([3]; 10 μM) [%]	% inhibition of control specific binding; [3H]DA incorporation into synaptosomes ([4]; 10 μM, rat striatum synaptosomes) [%]	% inhibition of control specific binding, SERT (h) ([5]; 10 μM) [%]	inhibition at 10 µM ([1]; read-out: % inhibition of control specific binding, [3H]5-HT incorporation into synaptosomes) [%]	inhibition at 10 µM ([3]; read-out: % inhibition of control specific binding, [3H]NE incorporation into synaptosomes) [%]	inhibition at 10 µM ([4]; Rattus norvegicus, read-out: % inhibition of control specific binding, [3H]DA incorporation into synaptosomes) [%]	inhibition at 10 µM ([5]; read-out: % inhibition of control specific binding, SERT (h)) [%]
CC(C)OC(=O)C(c1ccccc1)C1CCCCN1 (racemic) [IPH, dl-threo-α-phenyl-2-piperidineacetic acid isopropyl ester]	28	47.5±3.3	significantly decreased	no EPH formation was observed	62	96	20	–	–	–	–
COC(=O)C(c1ccccc1)C1CCCCN1 (racemic) [MPH, dl-threo-methylphenidate, reference compound]	–	–	significantly decreased	no EPH formation was observed	–	–	–	35	117	90	6
